Experimental data taken from patent US10508113B2, “Inhibitors of tyrosine kinase 2 mediated signaling” (AbbVie Inc., priority 2018, dated 2019).

Target: T1, Tyk2/Jak2 (Homo sapiens, UniProt P29597)
T1 construct: Cell Type: Frozen primary phytohemagglutinin (PHA) T-Blasts; endogenous in cells; host or cells: primary PHA T-blasts
Test: Tyk2 (Tyk2/Jak2 PSTAT4 T-Blast) alpha screen assay: inhibition of IL-12 induced phosphorylation of STAT4 in T-blast cells
Assay type: cell-based
Details: IL-12 induced pSTAT4, T-blast cells
Method: 1. TYK2 (TYK2/JAK2 PSTAT4 T-BLAST) ALPHA SCREEN ASSAY
IL-12 is known to transduce its signal through IL-12 receptor via Jak2 and/or Tyk2. For that reason, the activity against Tyk2/Jak2 was measured by determining the inhibition of IL-12 induced phosphorylation of STAT4 in T-blast cells. […] See, e.g., Sohn et al., J. Immunology (2013) 2205-2216.
Cell Type: Frozen primary phytohemagglutinin (PHA) T-Blasts; Culture Medium: Roswell Park Memorial Institute (RPMI) 1640 Medium, 10% heat-inactivated fetal bovine serum (FBS), 1% penicillin/streptomycin (Pen-Strep), 10 mM hydroxyethyl piperazineethanesulfonic acid (HEPES), 10 ng/mL recombinant human interleukin-12 (rhIL-12); Assay Medium: Hank's Balanced Salt Solution (HBSS), no phenol red.
i. Automated 11-point 1:3 dilution curve: 2.5 mM top concentration dispensed in column 1 of a Corning 96-well polypropylene plate. Dimethyl sulfoxide (DMSO) was added to column 12 for high and low controls. Compounds were serially diluted 1:3 by adding 20 uL stock to 40 μL DMSO across the plate via Hamilton Microlab Star instrument.
ii. Media dilution of compounds: Serially diluted compounds were diluted 1:50 in assay medium by adding 4 μL compound to 196 μL assay medium in a Corning 96-well polypropylene plate (now 2% DMSO).
iii. […]
Primary T-Blasts from overnight culture were centrifuged, washed once in assay medium, and pelleted. T-Blasts were counted and resuspended at 12,500,000 cells/mL. […]
Phosphorylated Signal Transducer and Activator of Transcription 4 (pSTAT4) was quantified using the PerkinElmer SureFire Ultra pSTAT4 (Tyrosine 693) Assay. […]
Make master mix of Protein A donor beads using the following volumes per well: 5.88 μL Dilution Buffer and 0.12 μL […]. […] Read plate on Perkin Elmer Envision. […]
Certain compounds listed in Table C were tested for Tyk2 activity following the aforementioned Tyk2 (Tyk2/Jak2 PSTAT4 T-Blast) alpha screen assay and Jak2 (PTATS UT7) alpha screen assay. […] Selectivity for Tyk2 over Jak1, and Tyk2 over Jak2, are calculated from the tabulated activity data.

T1 sequence (P29597 whole entry, other chains not shown): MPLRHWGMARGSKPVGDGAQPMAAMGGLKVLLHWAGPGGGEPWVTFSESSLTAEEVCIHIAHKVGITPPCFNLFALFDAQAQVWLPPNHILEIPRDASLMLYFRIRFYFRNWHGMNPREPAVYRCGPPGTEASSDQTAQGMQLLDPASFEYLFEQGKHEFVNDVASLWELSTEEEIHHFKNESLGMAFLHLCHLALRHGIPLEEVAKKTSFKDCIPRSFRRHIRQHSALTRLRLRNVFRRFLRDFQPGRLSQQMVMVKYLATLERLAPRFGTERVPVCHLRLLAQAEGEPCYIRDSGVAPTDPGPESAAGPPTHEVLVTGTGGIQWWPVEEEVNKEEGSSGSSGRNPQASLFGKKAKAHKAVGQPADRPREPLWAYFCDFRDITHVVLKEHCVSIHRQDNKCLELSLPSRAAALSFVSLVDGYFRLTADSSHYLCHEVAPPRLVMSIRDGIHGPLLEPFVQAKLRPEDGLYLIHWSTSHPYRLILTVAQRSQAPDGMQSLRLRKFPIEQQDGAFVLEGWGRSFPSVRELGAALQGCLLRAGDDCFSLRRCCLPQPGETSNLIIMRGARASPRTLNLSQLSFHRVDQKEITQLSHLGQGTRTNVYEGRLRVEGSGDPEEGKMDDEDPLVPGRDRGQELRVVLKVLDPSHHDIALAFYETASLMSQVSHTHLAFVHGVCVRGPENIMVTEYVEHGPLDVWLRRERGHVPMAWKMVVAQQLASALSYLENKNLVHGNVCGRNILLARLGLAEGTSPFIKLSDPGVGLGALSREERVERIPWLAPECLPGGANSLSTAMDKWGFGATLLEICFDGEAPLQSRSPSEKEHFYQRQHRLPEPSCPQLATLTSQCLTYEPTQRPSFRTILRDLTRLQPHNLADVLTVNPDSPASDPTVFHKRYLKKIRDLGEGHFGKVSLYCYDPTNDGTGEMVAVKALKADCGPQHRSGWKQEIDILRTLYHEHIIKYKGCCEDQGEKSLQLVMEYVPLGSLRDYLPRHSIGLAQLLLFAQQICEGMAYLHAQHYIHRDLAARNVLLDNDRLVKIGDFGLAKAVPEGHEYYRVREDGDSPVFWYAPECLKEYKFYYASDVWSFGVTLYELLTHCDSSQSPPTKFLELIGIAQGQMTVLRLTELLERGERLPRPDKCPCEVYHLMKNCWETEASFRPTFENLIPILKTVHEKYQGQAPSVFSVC

EC50: 540 nM
Compound: CC(=O)Nc1cc2c(-c3cccc([C@@]4(CO)CCOC4)n3)c[nH]c2cn1 [21-NH (R-isomer)]
